From US20140113093A1, “Polymers with reduced estrogenic activity” (SOLVAY SPECIALITY POLYMERS USA, LLC, priority 2011, published 2014)

Biological target: T1, Estrogen receptor α (ERα) (Homo sapiens, UniProt P03372)
T1 construct: host or cells: ER-α-UAS-bla GripTite 293 cells
T1 sequence (P03372 311-547 limits assumed): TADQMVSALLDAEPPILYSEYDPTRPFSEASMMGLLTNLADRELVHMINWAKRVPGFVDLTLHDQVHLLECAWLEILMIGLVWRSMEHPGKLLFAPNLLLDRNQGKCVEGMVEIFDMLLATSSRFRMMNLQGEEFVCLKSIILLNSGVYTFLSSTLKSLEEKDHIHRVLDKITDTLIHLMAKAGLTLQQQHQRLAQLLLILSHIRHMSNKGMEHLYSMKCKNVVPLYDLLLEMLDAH
Assay: GeneBLAzer Cell-Based Nuclear Receptor Assay (beta-lactamase reporter), EC50 response value to ERα
Conditions: ER-α-UAS-bla GripTite 293 cells, agonist mode, 16-24 hours at 37° C., monomers tested at 7 to 250000 nM
Description: The plate is incubated for 16-24 hours at 37° C./5% CO2 in a humidified incubator. […] The plate is read on a fluorescence plate reader.
The following equations are used for each set of data points: […]

Row | EC50 [µM] | Structure (SMILES)
1 | 4.14 | O=S(=O)(c1ccc(O)cc1)c1ccc(O)cc1 [Bisphenol S, 4,4′-dihydroxy-diphenylsulfone, reference compound]
2 | > 79.1 | O=S(=O)(c1ccc(O)cc1)c1ccc(-c2ccc(S(=O)(=O)c3ccc(O)cc3)cc2)cc1 [Example 1 (HPS), Hydroxysulfonebiphenyl]
3 | > 79.1 | O=S(=O)(c1ccc(Oc2ccc(O)cc2)cc1)c1ccc(Oc2ccc(O)cc2)cc1 [Example 3 (HBS), Bis-4-hydroxyphenoxydiphenylsulfone]
4 | > 250 | O=P(c1ccccc1)(c1ccc(Oc2ccc(O)cc2)cc1)c1ccc(Oc2ccc(O)cc2)cc1 [Example 5 (HPPPO), Bis-4-hydroxyphenoxyphenylphosphine oxide]

Row | Structure (SMILES) | EC50 [µM]
5 | CC(C)(c1ccc(O)cc1)c1ccc(C(C)(C)c2ccc(O)cc2)cc1 [BisP, α,α′-Bis(4-hydroxyphenyl)-1,4-diisopropylbenzene, reference compound] | > 25
